The test system of this series is Spontaneously hypertensive rats. Nature of the series: Blood pressure and heart rate by tail-cuff after chronic local drug delivery to the renal capsule via implanted minipumps.
The mark [1] stands for this setting: local delivery to renal capsule by minipump, tail-cuff, over time.

In the case of `Clc1cccc(Cl)c1N=C1NCCN1` [clonidine], the “dosage resulting in the blood-pressure effect, compared with oral dosage expected for a similar result” value (local delivery to renal capsule) is “significantly less than an oral dosage”. In addition, where the note is “local delivery to renal capsule by minipump”, the “heart rate (side effect)” value is reported as “not reduced”. Besides, under setting [1], the diastolic blood pressure entry is “reduced”, the mean blood pressure entry is on record as “reduced” and the systolic blood pressure entry is on record as “reduced”.

These data come from US20140221964A1, “SYSTEMS AND METHODS FOR LOCAL DRUG DELIVERY TO KIDNEYS” (priority 2011, published 2014).
